Laboratory results: patent publication US8722014B2, “1 H-[1, 2, 3] triazole substituted amino acids and uses thereof” (Washington University, priority 2009, dated 2014)
Values joined by “and” are separate entries in the source; they are usually repeats but may differ in a detail not shown here. Identical values can stand only once. Like-named read-outs stand apart in the source and are kept apart here.

What was measured:
[1] = system: subcutaneous 9L gliosarcoma tumors
Description: Biodistribution studies were performed with both enantiomers, (R)-[^18F]4 and (S)-[^18F]4, using Fischer 344 rats (Charles River Laboratories, Wilmington Mass., USA) implanted with subcutaneous 9L gliosarcoma tumors. The tumors were implanted by subcutaneous injection of a suspension of approximately 1×10^69L gliosarcoma cells into the flanks of the rats. The tumors were allowed to grow for 3 weeks prior to the study. The rats were allowed food and water ad libitum prior to the biodistribution study. Anesthesia was achieved using a mixture of 1% isoflurane in oxygen, and the radiolabeled amino acid (R)-[^18F]4 or (S)-[^18F]4 was injected intravenously through a tail vein. The animals were euthanized in groups of four for each enantiomer at 5, 30 or 60 minutes after injection. The organs and tissues of interest and the tumors were dissected and weighed, and the amounts of activity were measured and decay corrected to the time of injection with a gamma counter. Standards for the doses were also measured with a gamma counter, and the data were normalized as the percent of total dose per gram of tissue (% ID/g) for each sample. The data were analyzed using GraphPad Prism software with 1-way ANOVAs for each enantiomer at each time point with Bonferroni post-tests. The tumor and brain uptake of radioactivity was directly compared for both enantiomers at each time point with a 2-way ANOVA with Bonferroni post-test. p-values less than or equal to 0.05 were considered statistically significant.

[2] = system: subcutaneous 9L gliosarcoma tumor
Description: (§1) MicroPET imaging studies were performed in 2 rats implanted with subcutaneous 9L tumors and 1 rat implanted with an intracranial tumor. The subcutaneous implantations were performed as in the biodistribution studies except that the tumors were allowed to grow for 11 days prior to imaging. The intracranial tumor was implanted in the left midcerebrum using a template method as described previously in La Regina, M. C., et al., Lab. Anim. 34: 265-271, 2000, using a total of 5×10^4 cells suspended in 5 µL total volume. […] Computed axial tomography (CT) images were acquired with a MicroCAT II System (ImTek Inc., Knoxville, Tenn.), and PET data were acquired with MicroPET-FOCUS 120 and 220 scanners (Concorde MicroSystems Knoxville Tenn., USA) for 120 minutes after the intravenous tail vein injection of 0.24 to 0.31 mCi of (S)-[^18F]4. The PET and CT images were fused and analyzed using an Amira software package (Carlsbad Calif., USA), and time-activity curves were generated using ASIPro PET data analysis software (Concorde MicroSystems, Knoxville Tenn., USA).

[3] = system: intracranial 9L gliosarcoma tumor
Description: as §1

[4] = post injection, subcutaneous tumor
[5] = post injection, intracranial tumor

Cl.N[C@@H](Cc1cn(CC[18F])nn1)C(=O)O [(S)-[^18F]4, (S)-2-amino-3-[1-(2-fluoroethyl)-1H-[1,2,3]triazol-4-yl]propanoic acid hydrochloride salt-[^18F]]
biodistribution: blood ([1]; 5 min after i.v. injection): 0.98 ± 0.152 % ID/g
biodistribution: bone ([1]; 5 min after i.v. injection): 0.47 ± 0.065 % ID/g
biodistribution: brain ([1]; 5 min after i.v. injection): 0.08 ± 0.011 % ID/g
biodistribution: fat ([1]; 5 min after i.v. injection): 0.09 ± 0.020 % ID/g
biodistribution: heart ([1]; 5 min after i.v. injection): 0.43 ± 0.048 % ID/g
biodistribution: kidney ([1]; 5 min after i.v. injection): 11.02 ± 1.224 % ID/g
biodistribution: large intestine ([1]; 5 min after i.v. injection): 0.14 ± 0.012 % ID/g
biodistribution: liver ([1]; 5 min after i.v. injection): 0.34 ± 0.035 % ID/g
biodistribution: lung ([1]; 5 min after i.v. injection): 0.87 ± 0.117 % ID/g
biodistribution: muscle ([1]; 5 min after i.v. injection): 0.18 ± 0.030 % ID/g
biodistribution: pancreas ([1]; 5 min after i.v. injection): 2.75 ± 0.634 % ID/g
biodistribution: salivary gland ([1]; 5 min after i.v. injection): 0.74 ± 0.043 % ID/g
biodistribution: small intestine ([1]; 5 min after i.v. injection): 0.69 ± 0.076 % ID/g
biodistribution: spleen ([1]; 5 min after i.v. injection): 0.72 ± 0.054 % ID/g
biodistribution: testes ([1]; 5 min after i.v. injection): 0.21 ± 0.013 % ID/g
biodistribution: thyroid ([1]; 5 min after i.v. injection): 0.71 ± 0.117% of total dose per organ
biodistribution: tumor ([1]; 5 min after i.v. injection): 0.47 ± 0.069 % ID/g
tumor:brain ratio ([1]; 5 min after i.v. injection): 5.9
tumor bone (femur) ratio ([1]; 30 min, biodistribution study): 2.3
tumor to muscle ratio ([1]; 30 min, biodistribution study): 4.7
biodistribution: blood ([1]; 30 min after i.v. injection): 0.47 ± 0.101 % ID/g
biodistribution: bone ([1]; 30 min after i.v. injection): 0.36 ± 0.068 % ID/g
biodistribution: brain ([1]; 30 min after i.v. injection): 0.06 ± 0.008 % ID/g
biodistribution: fat ([1]; 30 min after i.v. injection): 0.05 ± 0.010 % ID/g
biodistribution: heart ([1]; 30 min after i.v. injection): 0.38 ± 0.066 % ID/g
biodistribution: kidney ([1]; 30 min after i.v. injection): 11.41 ± 1.939 % ID/g
biodistribution: large intestine ([1]; 30 min after i.v. injection): 0.15 ± 0.028 % ID/g
biodistribution: liver ([1]; 30 min after i.v. injection): 0.43 ± 0.091 % ID/g
biodistribution: lung ([1]; 30 min after i.v. injection): 0.83 ± 0.179 % ID/g
biodistribution: muscle ([1]; 30 min after i.v. injection): 0.18 ± 0.037 % ID/g
biodistribution: pancreas ([1]; 30 min after i.v. injection): 2.20 ± 0.747 % ID/g
biodistribution: salivary gland ([1]; 30 min after i.v. injection): 0.66 ± 0.139 % ID/g
biodistribution: small intestine ([1]; 30 min after i.v. injection): 0.54 ± 0.073 % ID/g
biodistribution: spleen ([1]; 30 min after i.v. injection): 0.75 ± 0.123 % ID/g
biodistribution: testes ([1]; 30 min after i.v. injection): 0.17 ± 0.033 % ID/g
biodistribution: thyroid ([1]; 30 min after i.v. injection): 0.44 ± 0.102% of total dose per organ
biodistribution: tumor ([1]; 30 min after i.v. injection): 0.83 % ID/g and 0.83 ± 0.142 % ID/g
tumor:brain ratio ([1]; 30 min after i.v. injection): 14.6
tumor to lung ratio ([1]; 60 min): 1.3
tumor to spleen ratio ([1]; 60 min): 1.5
tumor to normal tissue ratios ([1]; 60 min, except in the lung and the spleen): at least 2
biodistribution: blood ([1]; 60 min after i.v. injection): 0.23 ± 0.015 % ID/g
biodistribution: bone ([1]; 60 min after i.v. injection): 0.23 ± 0.011 % ID/g
biodistribution: brain ([1]; 60 min after i.v. injection): 0.05 ± 0.001 % ID/g
biodistribution: fat ([1]; 60 min after i.v. injection): 0.04 ± 0.007 % ID/g
biodistribution: heart ([1]; 60 min after i.v. injection): 0.30 ± 0.011 % ID/g
biodistribution: kidney ([1]; 60 min after i.v. injection): 4.79 ± 0.378 % ID/g
biodistribution: large intestine ([1]; 60 min after i.v. injection): 0.10 ± 0.012 % ID/g
biodistribution: liver ([1]; 60 min after i.v. injection): 0.32 ± 0.021 % ID/g
biodistribution: lung ([1]; 60 min after i.v. injection): 0.56 ± 0.085 % ID/g
biodistribution: muscle ([1]; 60 min after i.v. injection): 0.16 ± 0.006 % ID/g
biodistribution: pancreas ([1]; 60 min after i.v. injection): 1.12 ± 0.151 % ID/g
biodistribution: salivary gland ([1]; 60 min after i.v. injection): 0.36 ± 0.037 % ID/g
biodistribution: small intestine ([1]; 60 min after i.v. injection): 0.31 ± 0.024 % ID/g
biodistribution: spleen ([1]; 60 min after i.v. injection): 0.47 ± 0.035 % ID/g
biodistribution: testes ([1]; 60 min after i.v. injection): 0.11 ± 0.006 % ID/g
biodistribution: thyroid ([1]; 60 min after i.v. injection): 0.30 ± 0.024% of total dose per organ
biodistribution: tumor ([1]; 60 min after i.v. injection): 0.72 ± 0.098 % ID/g
tumor:brain ratio ([1]; 60 min after i.v. injection): 15.2
magnitude of tumor uptake compared with the (R)-enantiomer ([1]; at all 3 time points, p<0.001): higher
maximal tumor to brain ratio ([1]; biodistribution study): 15
tumor to bone (spinal column) ratio ([2]; 30 min, MicroPET): 2.5
tumor to paraspinal muscle uptake ratio ([2]; 30 min, MicroPET): approximately 5.0
time of peak uptake in adjacent normal tissues ([2]; paraspinal muscle and spinal column, post injection): ≤ 5 min
time of maximal tumor uptake [2, 4]: 32.5 min
time of near maximal tumor uptake [2, 4]: approximately 20 min
maximal standard uptake value (SUV) ([2]; subcutaneous 9L tumor): 1.6
maximal tumor to brain ratio ([3]; MicroPET study): approximately 9
time of peak uptake in adjacent normal tissues ([3]; brain, post injection): ≤ 5 min
maximal standard uptake value (SUV) ([3]; intracranial tumor): 1.1
time of maximal tumor uptake [3, 5]: 27.5 min
time of near maximal tumor uptake [3, 5]: approximately 20 min
